# Assay results from patent US11883537B2, “Sustained release solid dosage forms for modulating the colonic microbiome” (Axial Therapeutics, Inc., priority 2019, dated 2024).
# Where two headings read alike, the source gives them in different places.
# Experiments:
# α-synuclein = α-synuclein (Homo sapiens, UniProt P37840); assay: ThT assay, aggregation of α-synuclein; format: biochemical
# Text: (§1) A compound that inhibits, or that may inhibit, amyloidogenesis is combined with a bacterial amyloid initiator (e.g., E. coli CsgA), or a host-derived amyloidogenic protein (e.g., α-synuclein) and an amyloid precursor in the presence of Thioflavin T (ThT). Separately, as a control, bacterial amyloid initiator, amyloid precursor, and Thioflavin T are combined in the absence of the suspected amyloidogenesis inhibitor. Thioflavin T fluorescence is monitored over time. […] The Tht assay was used with a cell-free assay to assess the effects of compounds on aggregation of α-synuclein of E. coli CsgA, and to assess the effects of compounds on aggregation of α-synuclein seeded by E. coli CsgA.
# [1] = biological target: α-synuclein seeded by E. coli CsgA (Homo sapiens, UniProt P37840); format: biochemical; settings: ThT fluorescence, cell-free
# Text: as §1
# E. coli CsgA = E. coli CsgA (Escherichia coli, UniProt P28307); assay: ThT assay, aggregation of E. coli CsgA; format: biochemical; settings: ThT fluorescence, cell-free
# Text: A compound that inhibits, or that may inhibit, amyloidogenesis is combined with a bacterial amyloid initiator (e.g., E. coli CsgA), or a host-derived amyloidogenic protein (e.g., α-synuclein) and an amyloid precursor in the presence of Thioflavin T (ThT). Separately, as a control, bacterial amyloid initiator, amyloid precursor, and Thioflavin T are combined in the absence of the suspected amyloidogenesis inhibitor. Thioflavin T fluorescence is monitored over time. A reduction in the rate of increase in Thioflavin T fluorescence, and/or a reduction in the maximum level of Thioflavin T fluorescence in the sample containing the suspected inhibitor, relative to the control sample, confirms that the suspected amyloidogenesis inhibitor is in fact functioning to inhibit amyloid formation. The Tht assay was used with a cell-free assay to assess the effects of compounds on aggregation of α-synuclein of E. coli CsgA, and to assess the effects of compounds on aggregation of α-synuclein seeded by E. coli CsgA. For a detailed description of the ThT assay, see, e.g., International Publication No. WO/2018/213204, which is incorporated by reference herein in its entirety.
# [2] = test system: bacterial curli levels in the gastrointestinal tract; assay: Murine models, curli content in feces; format: in vivo; settings: SPF mice or germ free mice mono-colonized with E. coli MC4100; oral
# Protocol: The following two mouse models were used to evaluate the in vivo activity of test articles (i.e., sustained release solid dosage forms described herein).
# Model 1 was performed in selected strains of specific pathogen free (SPF) mice (e.g. Swiss Webster) that carry curli producing bacteria as part of their native gastrointestinal microbiota.
# Model 2 was performed in germ free mice that have no native microbiota. In these mice administration, by oral gavage, of a single strain of curli-producing bacteria (e.g. E. coli MC4100) led to stable bacterial colonization of their gastrointestinal tract. […]
# To evaluate the ability of test articles to modify bacterial curli levels in the gastrointestinal tract mice, from either Model 1 or 2, were treated with compound typically administered once daily via oral gavage. […] Where appropriate, test articles were evaluated at multiple dose levels, or at greater or lower dosing frequency. […]
# To enable the quantitative assessment of test article impact on gastrointestinal curli levels, fecal samples were collected from these treated mice. […]
# Assessment of curli content in feces was achieved through one of four approaches: • 1. Quantitative measurement of messenger RNA (mRNA) levels for csgA using a specific qRT-PCR approach. • 2. Quantitative measurement of curli protein levels using fluorescent dyes that bind to amyloid proteins (e.g. ThT, Congo Red, FSB). • 3. […]
# αSyn amyloid formation = settings: mice; cited from earlier work
# Sequence of E. coli CsgA (P28307 21-151): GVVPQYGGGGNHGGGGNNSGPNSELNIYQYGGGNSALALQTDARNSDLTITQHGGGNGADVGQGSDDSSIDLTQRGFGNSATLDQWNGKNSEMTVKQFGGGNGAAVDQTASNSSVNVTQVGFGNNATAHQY
Structure (SMILES),"Inhibition of Aggregation αSyn (α-synuclein; ThT fluorescence, cell-free)",Inhibition of Aggregation CsgA-seeded αSyn [1],Inhibition of Aggregation CsgA (E. coli CsgA),in vivo activity on fecal curli content [2],motor scores (αSyn amyloid formation),αSyn amyloid formation in vivo (αSyn amyloid formation),Inhibition of Aggregation αSyn (α-synuclein)
"O=C(O[C@@H]1Cc2c(O)cc(O)cc2O[C@@H]1c1cc(O)c(O)c(O)c1)c1cc(O)c(O)c(O)c1 [EGCG, epigallocatechin gallate]",+++ ((+++) is greater than 60% inhibition),+++ ((+++) is greater than 60% inhibition),++ ((++) is between 30% to 60% inhibition),"reduce fecal levels of csgA mRNA, CsgA protein, and curli protein",improved motor scores,inhibits or reduces αSyn amyloid formation in mice,
Brc1cccc(-c2cc(-c3ccc4c(c3)OCO4)n[nH]2)c1 [Anle 138b],,,− ((−) is between −10% to 10% inhibition),,,,
Oc1ccc(/C=C/c2cc(O)cc(O)c2)cc1 [resveratrol],+++ ((+++) is greater than 60% inhibition),,+++ ((+++) is greater than 60% inhibition),,,,
COc1cc(/C=C/C(=O)/C=C(O)/C=C/c2ccc(O)c(OC)c2)ccc1O [curcumin],+++ ((+++) is greater than 60% inhibition),+++ ((+++) is greater than 60% inhibition),,,,,
O=C(CCc1ccc(O)cc1)c1c(O)cc(O)cc1O [phloretin],++ ((++) is between 30% to 60% inhibition),+ ((+) is between 10% to 30% inhibition),+ ((+) is between 10% to 30% inhibition),,,,
O=c1cc(-c2ccc(O)cc2)oc2cc(O)cc(O)c12 [apigenin],++ ((++) is between 30% to 60% inhibition),,,,,,
O=C(O)c1cc(O)c(O)c(O)c1 [gallic acid],+++ ((+++) is greater than 60% inhibition),+++ ((+++) is greater than 60% inhibition),+++ ((+++) is greater than 60% inhibition),,,,
COc1ccccc1O [guaiacol],− ((−) is between −10% to 10% inhibition),++ ((++) is between 30% to 60% inhibition),− ((−) is between −10% to 10% inhibition),,,,
CCCCCCCCCCCCOC(=O)c1cc(O)c(O)c(O)c1 [lauryl gallate],++ ((++) is between 30% to 60% inhibition),+ ((+) is between 10% to 30% inhibition),− ((−) is between −10% to 10% inhibition),,,,
Cc1ccc(C(C)C)c(O)c1 [thymol],− − ((− −) is less than −10% inhibition),− ((−) is between −10% to 10% inhibition),− ((−) is between −10% to 10% inhibition),,,,
O=c1c(O)c(-c2ccc(O)c(O)c2)oc2cc(O)cc(O)c12 [quercetin],+++ ((+++) is greater than 60% inhibition),,++ ((++) is between 30% to 60% inhibition),,,,
O=c1c(O)c(-c2ccc(O)cc2O)oc2cc(O)cc(O)c12 [morin],+++ ((+++) is greater than 60% inhibition),+++ ((+++) is greater than 60% inhibition),+++ ((+++) is greater than 60% inhibition),,,,
"C=CCc1ccc(OC)c(OC)c1 [4-allyl-1,2-dimethoxy-benzene, 4-allyl-1,2-dimethoxy-benzene]",,++ ((++) is between 30% to 60% inhibition),− − ((− −) is less than −10% inhibition),,,,− ((−) is between −10% to 10% inhibition)
C/C=C/c1ccc(O)c(OC)c1 [isoeugenol],− ((−) is between −10% to 10% inhibition),++ ((++) is between 30% to 60% inhibition),− ((−) is between −10% to 10% inhibition),,,,
CC(Cc1ccc(O)c(O)c1)C(C)Cc1ccc(O)c(O)c1 (centres unmarked) [NDGA],++ ((++) is between 30% to 60% inhibition),++ ((++) is between 30% to 60% inhibition),+ ((+) is between 10% to 30% inhibition),,,,
O=C(/C=C/c1ccc(O)c(O)c1)O[C@H](Cc1ccc(O)c(O)c1)C(=O)O [rosmarinic acid],+++ ((+++) is greater than 60% inhibition),,++ ((++) is between 30% to 60% inhibition),,,,
"COc1cc(O)ccc1O [methoxy- hydroquinone, methoxy-hydroquinone]",+++ ((+++) is greater than 60% inhibition),+++ ((+++) is greater than 60% inhibition),++ ((++) is between 30% to 60% inhibition),,,,
O=c1c(-c2ccc(O)cc2)coc2cc(O)cc(O)c12 [genistein],++ ((++) is between 30% to 60% inhibition),,,,,,
C=CCc1ccc(O)c(OC)c1 [eugenol],− ((−) is between −10% to 10% inhibition),++ ((++) is between 30% to 60% inhibition),− ((−) is between −10% to 10% inhibition),,,,
Cc1ccc(C(C)C)cc1O [carvacrol],− ((−) is between −10% to 10% inhibition),− ((−) is between −10% to 10% inhibition),− − ((− −) is less than −10% inhibition),,,,
